How the values were obtained:
[1] = cited from earlier work
[2] = system: primary culture of rat cerebellar granule cells (CGC); assay: Ionomycin-induced toxicity in cerebellar granule cells, MTT assay; format: cell-based; conditions: ionomycin 3 µM
Procedure: (§1) This neurotoxicity model reflects the calcium stress involved with several types of insults, such as amyloid toxicity, excitotoxicity, and ischemic damage. The viability of the primary culture of rat cerebellar granule cells (CGC) and brain cortical neurons (BCN) was assessed by the MTT assay in the presence of various concentrations of compound 4i.
(§2) Cerebellar granule cells (CGC) and brain cortical neurons (BCN) were isolated from P-7 or P0-2 rat’s pups, respectively, using a previously described protocol. Once removed, cerebella or brain cortex were digested for 15 min in 0.025% type II trypsin (w/v) at 37 °C. Ice-cold DMEM containing 5% (w/v) fetal bovine serum was added to inactivate the trypsin. […] After 8-10 day in culture the cells were incubated with a test compound or an equal volume of the DMSO (<1% (v/v) of the whole volume of the medium under the layer of cells and 3 µM ionomycin for 24 h. The cell viability was then evaluated as the dehydrogenase activity with the 3-(4,5-dimethylthiazol-2-yl)-2,5-diphenyltetrazolium bromide (MTT) assay. The absorbance was measured at 570 nm using a Victor microplate reader (Perkin Elmer), and data were normalized with intact control assumed 100%.

[3] = system: rat brain cortical neurons (BCN); assay: Ionomycin-induced toxicity in brain cortical neurons, MTT assay; format: cell-based; conditions: ionomycin 1 µM
Procedure: as §1
Cerebellar granule cells (CGC) and brain cortical neurons (BCN) were isolated from P-7 or P0-2 rat’s pups, respectively, using a previously described protocol. Once removed, cerebella or brain cortex were digested for 15 min in 0.025% type II trypsin (w/v) at 37 °C. Ice-cold DMEM containing 5% (w/v) fetal bovine serum was added to inactivate the trypsin. The crude cell suspension was centrifuged, and the cell pellet was resuspended in Neurobasal with 2% (v/v) B27 supplemented with 15% (v/v) fetal bovine serum (FBS), 100 U/mL penicillin, and […] streptomycin. The cells were cultured in a humidified, 5% (v/v) CO2-controlled environment at 37 °C. […] The cell viability was then evaluated as the dehydrogenase activity with the 3-(4,5-dimethylthiazol-2-yl)-2,5-diphenyltetrazolium bromide (MTT) assay. The absorbance was measured at 570 nm using a Victor microplate reader (Perkin Elmer), and data were normalized with intact control assumed 100%.

[4] = system: rat cerebellar granule cells (CGC) and brain cortical neurons (BCN); assay: Viability of CGC and BCN with the compound alone, MTT assay; format: cell-based; conditions: various concentrations
Procedure: as §1, §2

Row | SMILES | Redox potential [1] [mV] | Protection from ionomycin-induced toxicity, CGC [2] | Protection from ionomycin-induced toxicity, BCN [3] | Effect on formazan formation in the MTT assay (toxicity to cells) [4]
1 | CN(C)c1ccc2nc3ccc(=[N+](C)C)cc-3sc2c1 [MB, Methylene blue, reference compound] | 11 | – | – | –
2 | CC1CCc2c(c3cc(OC(F)(F)F)ccc3n2CCC(=O)N2c3ccc(N(C)C)cc3Sc3cc(N(C)C)ccc32)C1 (stereo not shown) [Compound 4i] | – | statistically significant protection | statistically significant protection | did not affect formazan formation

Reference: publication PMC9697446 (International Journal of Molecular Sciences, 2022)
